Data reported in paper PMC6200136 (Journal of medicinal chemistry, 2017).

Assays:
[1] = test system: phospho-CDK1 (Tyr15); test: Immunoblotting of phospho-CDK1; type: cell-based, human; settings: synchronized HEK293T and MDA-MB-231 cells, 6 h drug treatment
[2] = test system: phosphorylated TCTP (PLK1 substrate); test: Immunoblotting of phospho-TCTP; type: cell-based, human; settings: synchronized HEK293T and MDA-MB-231 cells, 6 h drug treatment
[3] = test system: HEK293T, MM1.S, and MDA-MB-231 cells; test: Cell viability across HEK293T, MM1.S and MDA-MB-231; type: cell-based; settings: Homo sapiens, 72 h, read-out: cell viability IC50 values (range over cell lines)
[4] = target: T1, Myt1-KD (Homo sapiens, UniProt Q99640); test: DSF thermal shift, Myt1 kinase domain; type: binding; settings: DSF screen, 100 μM
T1 sequence (Q99640 75-361): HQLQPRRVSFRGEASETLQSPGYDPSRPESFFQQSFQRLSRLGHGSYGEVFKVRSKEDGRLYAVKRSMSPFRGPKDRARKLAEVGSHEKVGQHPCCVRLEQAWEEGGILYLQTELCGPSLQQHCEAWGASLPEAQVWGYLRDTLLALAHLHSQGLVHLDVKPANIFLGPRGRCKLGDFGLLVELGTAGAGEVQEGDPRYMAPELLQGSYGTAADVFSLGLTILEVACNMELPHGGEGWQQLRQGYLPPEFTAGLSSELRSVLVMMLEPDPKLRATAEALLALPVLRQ

Row | binding potential for Myt1 (in words) [4] | Compound | effect on CDK1 phosphorylation [1] | reduction of phosphorylation levels, times less effective than BI-2536 and 1 [2] | IC50 [3] [nM]
1 |  | CC[C@@H]1C(=O)N(C)c2cnc(Nc3ccc(C(=O)NC4CCN(C)CC4)cc3OC)nc2N1C1CCCC1 [BI-2536] | no effect |  | 
2 |  | C=CCn1c(=O)c2cnc(Nc3ccc(N4CCN(C)CC4)cc3)nc2n1-c1cccc(C(C)(C)O)n1 [MK-1775] | reducing the levels of phosphorylated CDK1 | about 10 times | 290 to 310
3 |  | C[C@@H](Oc1cc(-n2cnc3ccc(CN4CCN(C)CC4)cc32)sc1C(N)=O)c1ccccc1C(F)(F)F [compound 1, (R)-5-(6-((4-methylpiperazin-1-yl)methyl)-1H-benzo[d]imidazol-1-yl)-3-(1-(2-(trifluoromethyl)phenyl)-ethoxy)thiophene-2-carboxamide] | no effect |  | 
4 | no binding potential | CC(=O)NCC(=O)N1[C@@H]2CC[C@H]1c1ccc(Nc3ncc(C(F)(F)F)c(NC4CCC4)n3)cc12 [compound 2] |  |  | 
